From patent US20160374985A1, “Bioactivity proanthocyanidin compound isolated from Lasia spinosa (L.) Thwait” (Hong Kong Baptist University, priority 2015, published 2016) come the findings set out here.

The test system of one data set is KYSE-450 cells. Put plainly: MTT cytotoxicity assay. It counts as cell-based. Conditions: Homo sapiens, 48 h. As to the method: (§1) Murine RAW264.7 macrophages and human esophageal cancer cell lines KYSE-70, KYSE-150, KYSE-410, KYSE-520 were maintained in RPMI 1640 or DMEM medium supplemented with 100 U/mL penicillin, 100 μg/mL streptomycin and 10% FBS in an incubator at 37° C. with a humidified atmosphere of 5% CO2. Cells were sub-cultured every three days at a dilution of 1:6.
(§2) In the present invention, PA1 was dissolved in dimethyl sulfoxide (DMSO) to make stock solutions which were further diluted in culture medium for this experiment. Cells were seeded in a 96-well plate (3×10^3 cells/well) and allowed to attach to the plate overnight. After the recovery, cells were treated with 1.56, 3.125, 6.25, 12.5, 25, 50 μg/mL of PA1 in culture medium for 48 h. Then, 20 μL of MTT (5 mg/mL stock in PBS) per well was added into the medium (200 μL) and incubated for 4 h at 37° C. Finally, the culture medium was removed and 200 μL of DMSO were added to dissolve the purple formazan crystals. Absorbance of the solution was measured using a microplate reader spectrophotometer (Bio-Rad Laboratories, Inc., Hercules, Calif.) at a wavelength of 570 nm.
To determine the cytotoxic effect of PA1 against human esophagus cancer cells (KYSE-70, KYSE-150, KYSE-450 and KYSE-520 cell lines), MTT (3-[4,5-dimethylthiazol-2-yl]-2,5-diphenyltetrazolium bromide) assay was performed.
For orientation: Tetrazolium dyes change colour on reduction, which living cells bring about.

In data set [1] the test system is KYSE-150 cells. Briefly: Wound healing assay. In kind it is cell-based, human. Conditions: PA1 6.25 μg/mL, 72 hours. The protocol: as §1
6×10^4 cell/well were seeded in 12 well-plate at 30% confluence in completed medium. After 24 hours seeding, the monolayer was wounded by scoring with a sterile plastic tip (1 mL), then washed twice with PBS to remove cell debris and then incubated in a conditioned medium in the absence or presence of PA1 at 6.25 μg/mL for various periods of time up to 72 hours. Cell migration into the wound surface was monitored by Olympus IX71 microscopy and digitally photographed.
In addition, wound-healing assay was used to test whether those compounds could affect cell motility. A confluent monolayer of KYSE-150 cells was scratched to form a wound and incubated in the absence or presence of PA1 at 6.25 μg/mL. The results obtained were compared to that of controls.

Data set [2] deals with KYSE-150 cells. Briefly: MTT cell viability, KYSE-150. It counts as cell-based, human. To be noted: 6.25 μg/mL. The protocol:
as §2, with “Murine RAW264.7 macrophages and human esophageal cancer cell lines KYSE-70, KYSE-150, KYSE-410, KYSE-520 were maintained in RPMI 1640 or DMEM medium supplemented with 100 U/mL penicillin, 100 μg/mL streptomycin and 10% FBS in an incubator at 37° C. with a humidified atmosphere of 5% CO2. Cells were sub-cultured every three days at a dilution of 1:6. In the” for “In the”

In data set [3] the test system is LPS-stimulated RAW264.7 macrophages. Briefly: Nitric oxide production determination (Griess reagent). It counts as cell-based, murine. To be noted: LPS 100 ng/mL, PA1 1.56-50 μg/mL, vs LPS-alone. The protocol: Murine RAW264.7 macrophages and human esophageal cancer cell lines KYSE-70, KYSE-150, KYSE-410, KYSE-520 were maintained in RPMI 1640 or DMEM medium supplemented with 100 U/mL penicillin, 100 μg/mL streptomycin and 10% FBS in an incubator at 37° C. with a humidified atmosphere of 5% CO2. Cells were sub-cultured every three days at a dilution of 1:6. Nitric oxide (NO) production was indirectly assessed by measuring the nitrite levels in the cultured medium determined by a colorimetric method based on the Griess reagent. The cells were co-treated with various concentrations of PA1 in the absence or presence of LPS (100 ng/mL) at 37° C. for 24 hours. Then, 100 μL of each supernatant was mixed with the equal volume of Griess reagent incubated at room temperature for 15 minutes; meanwhile, sodium nitrite was used as a standard substance. The optical densities were measured at 540 nm with a micro-plate reader.
Background: Nitrite, measured by Griess reagent, commonly stands in for NO production.

In another data set the test system is RAW264.7 macrophages. Briefly: Cell viability of RAW macrophages. It counts as cell-based, murine. Conditions: RAW cells, 1.56-50 μg/mL, 20 hours. The protocol:
as §2, with “Murine RAW264.7 macrophages and human esophageal cancer cell lines KYSE-70, KYSE-150, KYSE-410, KYSE-520 were maintained in RPMI 1640 or DMEM medium supplemented with 100 U/mL penicillin, 100 μg/mL streptomycin and 10% FBS in an incubator at 37° C. with a humidified atmosphere of 5% CO2. Cells were sub-cultured every three days at a dilution of 1:6. In the” for “In the”, “plate overnight. […] Then, 20” for “plate overnight. After the recovery, cells were treated with 1.56, 3.125, 6.25, 12.5, 25, 50 μg/mL of PA1 in culture medium for 48 h. Then, 20”

The subject of another data set is DSS-induced colitis. Put plainly: DSS-induced colitis mouse model. It counts as in vivo, C57BL/6 mice. An excerpt:
7-week-old male C57BL/6 mice weighing about 20-22 g were purchased from the Laboratory Animal Services Center, the Chinese University of Hong Kong. The study protocols were approved by the committee for Care of Laboratory Animals in the School of Chinese Medicine at the Hong Kong Baptist University.
The animals were randomly assigned into five groups (n=8). Mice in the control group were supplied with distilled water whereas all other experimental groups were given 2.0% (w/v) dextran sulphate sodium (DSS) for 5 days. Thereafter, the mice of the DSS, SASP-treated (200 mg/kg/day) and PA1 (10 or 30 mg/kg/day)-treated groups were administered by gavage with saline, SASP or PA1 from day 6 to day 13, respectively.
The DAI was determined by scoring changes in the body weight, diarrhea, colon length, and bleeding.
The colons were dissected longitudinally, gently washed with ice-cold phosphate buffer saline (PBS), fixed in 4% paraformaldehyde overnight, and embedded in paraffin. Each of five-micro-meter sections was stained with hematoxylin/eosin according to a standard procedure to evaluate colonic damage.
Myeloperoxidase (MPO) is an enzyme mainly released by neutrophil, and its activity is directly associated with the severity of inflammation in a given tissue. In the present invention, MPO activity was measured as described in the inventor's earlier publication (Mu, H. X., et al., Anti-inflammatory Actions of (|)-3′alpha-Angeloxy-4′-keto-3′,4′-dihydroseselin (Pd-Ib) against Dextran Sulfate Sodium-Induced Colitis in C57BL/6 Mice. J Nat Prod, 2016). The results were normalized to the wet weight of colon tissue and quantified as units/g tissue.

Where [4] appears, read: mice, 2% DSS, PA1 10 or 30 mg/kg/day by gavage day 6-13.

In brackets after ≈: the same amount, converted by molar mass.

As usually defined, the IC50 is the midpoint of a concentration-inhibition curve.

Consider `Oc1cc(O)c2c(c1)OC1(c3ccc(O)c(O)c3)Oc3cc(O)c4c(c3C2C1O)OC(c1ccc(O)c(O)c1)[C@@H](O)C4` (some centres unmarked) [PA1, proanthocyanidin A1], for which the IC50 in the data set on KYSE-450 cells turned out to be 48.6 µg/mL (≈ 84.4 µM). Also, in the data set on KYSE-150 cells [1], the “Cell migration into the wound” value is given as “did not migrate into the wound”. In addition, the Cell viability entry in the data set with KYSE-150 cells [2] and with RAW264.7 macrophages was “did not alter the cells viability” each time. For the same compound, in data set [3], the NO production result is reported as “significant inhibition of NO production”. For the same compound, in the data set on DSS-induced colitis (colon homogenates, day 14, vs DSS group), the “Colonic MPO activity” value is given as “significantly lower the MPO activity”. In addition, the “Histological manifestation of colon (H&E)” value in the data set with DSS-induced colitis (mice, 2% DSS, PA1 10 or 30 mg/kg, vs DSS group) was “reduction in mucosal ulceration, crypt damage, edema, and cell infiltration into mucosal tissue”. The “Disease activity index (DAI) score” value with DSS-induced colitis (setting [4]) is given as “clinical improvement”. For the same compound, the Mortality result in the data set on DSS-induced colitis (setting [4]) is recorded as “decreased”. In the data set with DSS-induced colitis (mice, 2% DSS, PA1 10 or 30 mg/kg/day by gavage day 6-13, vs DSS group), the Body weight loss entry is given as “reduced body weight loss”. In the data set on DSS-induced colitis (mice, 2% DSS, PA1 10 or 30 mg/kg/day by gavage, day 14), the “Shortening of colon length” value is reported as “rectified”.
